Structures are written as SMILES. “And” between values parts separate entries of the source, which are not always exact repeats. Equal values may be shown once.

Common to all, as to assay type: in vivo
Assay [1] relates to larval ticks (I. scapularis). Put plainly: Systemic efficacy of fipronil diet on larval ticks fed on laboratory mice. Conditions: for Replete Ticks: individual mice; for Replete Ticks, Total: 8 mice. How it is done:
To investigate the systemic efficacy of fipronil against ticks, diet compositions formulated with the compound were presented to treatment mice while an EPA challenge diet, without insecticide, was presented to control mice. Diet compositions were presented for 48 hours. Water was supplied ad libitum. Feed consumption was monitored throughout the study. After 48-hours, mice were removed from their cages and 50-70 I. scapularis were applied to each mouse by first placing mice in 50 ml centrifuge tubes will multiple holes in them. Holes were created by melting the centrifuge tube with a soldering iron. Ticks were then applied and mice remained restrained in the tubes for 2-5 hours, thereby allowing the ticks to attach. The mice were placed in cages suspended over water in a humidity chamber maintaining humidity between 60-80%. Water underneath the suspended mice was checked daily for the presence of ticks falling from the mice. The number of fed and unfed ticks was recorded. Water pans were checked for 6 days. The ticks were kept at 21° C., 90% humidity and a light cycle of 16L:8D. Pans were checked for 5 days. The end-point for the insecticides were larval tick mortality after exposure.
Study 1a: A Diet Composition Containing 970-ppm Fipronil Diet was Formulated Using Inert Ingredients of Rolled Oats, Corn Meal, Powdered Sugar and Corn Oil.
The diet was exposed to laboratory mice for 48 hours.
Study 2a: A Diet Composition Containing 485-ppm Fipronil Diet was Formulated and Exposed to Laboratory Mice for 48 Hours.
The diet was exposed to laboratory mice for 48 hours. Ticks were applied directly to the mice.

The test system of assay [2] is larval ticks (I. scapularis). The assay is described as above. Conditions: diet compositions containing 960-ppm fipronil (so in the source).
The subject of the next assay is German cockroaches. Put plainly: Cockroach mortality on rodent challenge diet fortified with imidacloprid. Conditions: EPA challenge diet fortified with 250 mg/kg imidacloprid. As to the method:
To determine if rodent diet compositions containing imidacloprid would be effective at controlling cockroaches, German cockroaches were received from a commercial supplier and placed in a sealed container. Rodent “challenge diet”, the EPA standard rodent diet formulation, fortified with 250 mg/kg imidacloprid was placed in the cage. Water was supplied by a wet cotton wick. The mortality of cockroaches consuming diet was 100%.

In another assay the test system is X. cheopis fleas. Put plainly: Flea mortality on rats fed imidacloprid or imidacloprid/piperonyl butoxide diet. How it is done:
For example, an investigation was conducted into the ability of piperonyl butoxide to potentiate the insecticidal activity of orally administered imidacloprid to rats challenged with fleas. Piperonyl butoxide compound is known to produce significant decreases in hepatic cytochrome P450 in rats (Dalvi and Dalvi 1991). Because imidacloprid is also metabolized by cytochrome P450 in rats (Schulz-Jander et al. 2002), decreasing the metabolism rate of imidacloprid in the rat (i.e., the rate at which imidacloprid is metabolized by the rat) may increase the availability and therefore the toxicity of the compound to fleas as well as possibly increasing the residual action of the insecticide. Four rats were evaluated for each test diet. Rats were individually housed in individual cages. Rats were housed in cages measuring 24×40.5×18 cm (L×W×H). The floor area measured 972 cm^2. Tap water in glass bottles with stainless steel sipper tubes was available ad libitum. Cages were suspended from shelves on two, single-sided racks. Rats were placed in cages identified by a consecutive number 1-8 and a descriptor for their sex (e.g. M or F). PBO Technical (Prentox®) was received from Prentiss Inc. (Floral Park, N.Y., Lot# 41428). Diet composition was made using the following recipes:
The imidacloprid (Imi) diet composition was formulated at 167 mg/kg imidacloprid. The imidacloprid/PBO diet composition was formulated at 169 mg/kg imidacloprid and 1% PBO. Diets were mixed and presented no-choice to rats for 24 hours. Flea feeding capsules, containing fleas (X. cheopis) were secured to the rats and remained attached for 5 hrs. After exposure, the flea feeders were removed and placed in the humidity chamber until the following morning. Fleas were then evaluated for mortality and morbidity (Table 5).

`N#Cc1nn(-c2c(Cl)cc(C(F)(F)F)cc2Cl)c(N)c1[S+]([O-])C(F)(F)F` (stereo not shown) [Fipronil, fipronil]: the “Replete Ticks” value in assay [1] (485 ppm fipronil diet 48 hours, 70 ticks applied per mouse) came to 0; in assay [1] (970-ppm fipronil diet 48 hours, 50 ticks applied per mouse), 0. Further, the “Replete Ticks, Total” value came to 0 in assay [1] (485 ppm fipronil diet, 70 ticks each, control total 162) and 0 in assay [1] (970-ppm fipronil diet, 50 ticks each, control total 12). The “prevents ticks from feeding to repletion” value in assay [1] (fipronil formulated at 485 mg/kg in diet) is listed as “prevents ticks from feeding to repletion”. Further, the “preventing ticks from feeding to repletion” value in assay [2] is given as “effective at preventing ticks from feeding to repletion”.
On to `O=[N+]([O-])NC1=NCCN1Cc1ccc(Cl)nc1` [Imidacloprid, imidacloprid], for which the “mortality of cockroaches consuming diet” value with German cockroaches is on record as 100%. Moreover, in the assay on X. cheopis fleas (4 rats per diet, pooled), the Total fleas dead/recovered result is “(71/85)”. Besides, in the assay with X. cheopis fleas (4 rats per diet, Imi 167 mg/kg, Imi/pip 169 mg/kg imidacloprid and 1% PBO), the “Total Percent Mortality (%)” value turned out to be 83.5%. Moreover, the “# Fleas Dead/# Fleas Recovered” value in the assay with X. cheopis fleas (individual rats, diet 24 hours, flea capsules attached 5 hrs, Imi 167 mg/kg, Imi/pip 169 mg/kg imidacloprid and 1% PBO) is 20/24 and 18/18 and 15/15 and 18/28.

Values taken from patent publication US7943160B2, “Pest control methods” (priority 2002, dated 2011).
